Data taken from BindingDB's records for doi:10.1016/0024-3205(90)90472-4 (University of Arizona, 1990).

Biological target: T1, Muscarinic acetylcholine receptor M2 (Rattus norvegicus, UniProt P10980)
T1 sequence (P10980 whole entry): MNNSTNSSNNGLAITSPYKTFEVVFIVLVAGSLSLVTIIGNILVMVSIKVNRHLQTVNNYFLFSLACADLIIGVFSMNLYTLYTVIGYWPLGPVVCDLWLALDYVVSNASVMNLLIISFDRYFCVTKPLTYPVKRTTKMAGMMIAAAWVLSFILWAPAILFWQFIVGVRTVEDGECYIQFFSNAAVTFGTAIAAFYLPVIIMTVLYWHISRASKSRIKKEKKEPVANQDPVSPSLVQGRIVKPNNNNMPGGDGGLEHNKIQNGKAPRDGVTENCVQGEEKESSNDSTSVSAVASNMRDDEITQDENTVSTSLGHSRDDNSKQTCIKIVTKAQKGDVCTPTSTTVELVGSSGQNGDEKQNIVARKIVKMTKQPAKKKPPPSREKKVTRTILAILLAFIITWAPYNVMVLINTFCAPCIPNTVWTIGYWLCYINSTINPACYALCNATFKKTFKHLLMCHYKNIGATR

C[C@H]1OC(=O)C2C[C@H]3CCCC[C@@H]3[C@@H](/C=C/[C@@H]3CCC[C@H](C)N3C)C21 (stereo partly specified) [HIMBACINE]
Ki: 10.2 nM
